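Where inhibition never reached the appropriate level, the endpoint shown equals the highest concentration tested. Otherwise, values were interpolated linearly from a five-concentration, 48-hour dose response in 96-well plates. GI50 is the concentration that inhibits growth by half. TGI is the concentration that stops growth completely.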
Assays:
Assay in all cases: NCI anticancer screen, dose series, 48 h
CAKI-1 renal = tested on: CAKI-1 renal
SF-268 CNS = tested on: SF-268 CNS
RPMI-8226 leukemia = tested on: RPMI-8226 leukemia
T-47D breast = tested on: T-47D breast
OVCAR-4 ovarian = tested on: OVCAR-4 ovarian
NCI-H23 lung = tested on: NCI-H23 lung
UACC-62 melanoma = tested on: UACC-62 melanoma
HCT-15 colon = tested on: HCT-15 colon
CCRF-CEM leukemia = tested on: CCRF-CEM leukemia
HL-60(TB) leukemia = tested on: HL-60(TB) leukemia

SMILES	GI50 (CAKI-1 renal)	TGI (CAKI-1 renal)	GI50 (SF-268 CNS)	TGI (SF-268 CNS)	GI50 (RPMI-8226 leukemia)	TGI (RPMI-8226 leukemia)	GI50 (T-47D breast)	TGI (T-47D breast)	GI50 (OVCAR-4 ovarian)	TGI (OVCAR-4 ovarian)	GI50 (NCI-H23 lung)	TGI (NCI-H23 lung)	GI50 (UACC-62 melanoma)	TGI (UACC-62 melanoma)	GI50 (HCT-15 colon)	TGI (HCT-15 colon)	GI50 (CCRF-CEM leukemia)	TGI (CCRF-CEM leukemia)	TGI (HL-60(TB) leukemia)	GI50 (HL-60(TB) leukemia)
CC1SC(c2cccs2)N(NC(=O)C(O)c2ccccc2)C1=O (stereo not drawn)	> 100 µM	> 100 µM	> 100 µM	> 100 µM	> 100 µM	> 100 µM	> 100 µM	> 100 µM	> 100 µM	> 100 µM	> 100 µM	> 100 µM	> 100 µM	> 100 µM	> 100 µM	> 100 µM	> 100 µM	> 100 µM	–	–
O=C(OCCOCCOC(=O)c1c[nH]cc1-c1ccccc1)c1c[nH]cc1-c1ccccc1	–	83.1 µM	–	40 µM	–	56.9 µM	–	–	–	49.7 µM	–	33.7 µM	–	31 µM	–	38.5 µM	–	> 100 µM	55.1 µM	–
Cc1ccc(S(=O)(=O)N2CCCCC2CCO)cc1 (stereo not drawn)	–	> 100 µM	–	> 100 µM	–	> 100 µM	–	–	–	> 100 µM	–	> 100 µM	–	> 100 µM	–	> 100 µM	–	> 100 µM	> 100 µM	–
COc1ccc2c(CNCCCCO)cc3cc4c(cc3c2c1)OCO4	0.628 µM	2.96 µM	0.151 µM	1.15 µM	0.655 µM	3.77 µM	3.71 µM	> 46.7 µM	2.31 µM	7.54 µM	2.24 µM	6.43 µM	1.59 µM	3.29 µM	1.43 µM	8.61 µM	0.777 µM	10.9 µM	–	–
COC(=O)C1Cc2c([nH]c3ccccc23)C=N1 (stereo not drawn)	–	> 100 µM	–	> 100 µM	–	> 100 µM	–	–	–	> 100 µM	–	> 100 µM	–	> 100 µM	–	> 100 µM	–	> 100 µM	> 100 µM	–
C=C1C(=O)O[C@H]2[C@H]1CC/C(COC(=O)CCC(=O)OC/C1=C/CC[C@@]3(C)O[C@H]3[C@H]3OC(=O)C(=C)[C@@H]3CC1)=C\CC[C@@]1(C)O[C@@H]21	–	–	3.18 µM	14 µM	1.22 µM	4.16 µM	1.06 µM	3.67 µM	2.07 µM	5.9 µM	2.9 µM	11.2 µM	1.86 µM	6.55 µM	1.54 µM	3.58 µM	0.251 µM	0.778 µM	0.812 µM	0.233 µM
Cc1cc2c(=O)cc(-c3ccc(Cl)cc3)oc2c(C(=O)O)c1C	–	> 100 µM	–	> 100 µM	–	> 100 µM	–	–	–	> 100 µM	–	> 100 µM	–	> 100 µM	–	> 100 µM	–	> 100 µM	–	–
CCOC(=O)[C@H]1Nc2ccc(O)cc2C2c3ccccc3CC21 (stereo partly drawn)	–	> 100 µM	–	> 100 µM	–	> 100 µM	–	–	–	> 100 µM	–	> 100 µM	–	> 100 µM	–	> 100 µM	–	–	–	–
O=C1/C(=C/c2ccc(O)cc2)CCC1CNc1ccc(Cl)cc1 (stereo not drawn)	–	8.84 µM	–	19.8 µM	–	10.8 µM	–	–	–	8.86 µM	–	24.3 µM	–	5.86 µM	–	2.83 µM	–	11.2 µM	–	–
CCCCCCCCSC1=CC(=O)C(OC)=C(OC)C1=O	6.11 µM	54.6 µM	3.75 µM	14.7 µM	1.27 µM	> 100 µM	–	–	1.27 µM	3.14 µM	3.36 µM	16.2 µM	3.5 µM	13.9 µM	2.27 µM	8.58 µM	–	–	21.4 µM	0.437 µM
Cc1ccc(/C=C2\CCOC2=O)cc1	–	–	60.2 µM	> 100 µM	–	–	> 100 µM	> 100 µM	> 100 µM	> 100 µM	> 100 µM	> 100 µM	> 100 µM	> 100 µM	> 100 µM	> 100 µM	> 100 µM	> 100 µM	> 100 µM	> 100 µM
Cc1ccccc1NC(=O)NC(CC(N)=O)c1ccc2c(c1)nc(-c1cccc(Oc3ccc(C(C)(C)C)cc3)c1)n2CCCN1CCCCC1C (stereo not drawn)	17.2 µM	42.8 µM	1.88 µM	3.88 µM	2.49 µM	6.48 µM	2.6 µM	10.5 µM	3.07 µM	8.39 µM	4.89 µM	9.91 µM	1.71 µM	3.22 µM	12.5 µM	27.1 µM	3.03 µM	15.1 µM	–	–
Cc1ccccc1NC(=O)c1[nH]c(=S)nc(N)c1-c1ccccc1C	–	> 100 µM	–	> 100 µM	–	> 100 µM	–	–	–	> 100 µM	–	> 100 µM	–	> 100 µM	–	> 100 µM	–	> 100 µM	> 100 µM	–
Cc1c(Cl)cccc1NC(=O)C(=O)C1C(=O)NC(=O)NC1=O	–	> 100 µM	–	> 100 µM	–	> 100 µM	–	–	–	> 100 µM	–	> 100 µM	–	> 100 µM	–	> 100 µM	–	> 100 µM	> 100 µM	–
CC1=C(C)C(=O)C(C(C)C2=C(C)C(=O)C(C)=C(C)C2=O)=C(C)C1=O	28.6 µM	> 100 µM	18.7 µM	49.7 µM	7.09 µM	31.6 µM	12.8 µM	26.4 µM	–	–	21.6 µM	> 100 µM	19.3 µM	> 100 µM	15.2 µM	> 100 µM	20.1 µM	50.7 µM	24.5 µM	6.94 µM
Cc1ccc(Cl)cc1Nc1nc(C(F)(F)F)ccc1C(=O)Oc1ccc(Cl)cc1	3.31 µM	13.2 µM	14 µM	38.7 µM	28.6 µM	> 100 µM	6.53 µM	42.2 µM	11.1 µM	44.3 µM	11.7 µM	27.8 µM	15.8 µM	38.6 µM	10.9 µM	30.8 µM	7.68 µM	24.4 µM	–	–

From PubChem BioAssay (NCI)
